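A five-concentration, 48-hour dose response in 96-well plates underlies each endpoint, interpolated linearly between surrounding concentrations. TGI: concentration producing complete growth inhibition.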

In general, TGI refers to the concentration giving total growth inhibition. A low value points to more potent growth arrest.

Test systems include HL-60(TB) leukemia; HOP-62 NSCLC; SR leukemia; TK-10 renal; CAKI-1 renal; LOX IMVI melanoma; NCI-H23 lung; K-562 leukemia; NCI-H226 lung; DU-145 prostate; A549 NSCLC; ACHN renal; HCT-116 colon; HS 578T breast; NCI-H522 lung; COLO 205 colon; MOLT-4 leukemia; SF-295 CNS; SF-268 CNS; A498 renal.
Common to all, as to test: DTP human tumour cell line panel, 48 h

With `O=C1CCCC2C(O)CCC[C@H]12` (stereo partly specified), the TGI with HL-60(TB) leukemia, with HOP-62 NSCLC, in the assay with SR leukemia, in the assay on TK-10 renal, in the assay with CAKI-1 renal and in the assay with LOX IMVI melanoma was over 100 µM in each case. For the same compound, the concentration for total growth inhibition (TGI) in the assay on NCI-H23 lung, in the assay on K-562 leukemia, in the assay on NCI-H226 lung, with DU-145 prostate, with A549 NSCLC and in the assay with ACHN renal was over 100 µM in each case. Moreover, the TGI in the assay on HCT-116 colon, in the assay with HS 578T breast, in the assay with NCI-H522 lung, with COLO 205 colon, in the assay on MOLT-4 leukemia and with SF-295 CNS was over 100 µM throughout. Also, the concentration for total growth inhibition (TGI) in the assay on SF-268 CNS is over 100 µM.

As for `COc1cc2c(c(O)c1OC)C(O)C1CCC(=O)N1C2c1cccc2ccccc12` (stereo unspecified), the total growth inhibition concentration (TGI) with HL-60(TB) leukemia, with HOP-62 NSCLC, in the assay with SR leukemia, in the assay with CAKI-1 renal, in the assay with NCI-H23 lung and in the assay with K-562 leukemia was over 100 µM throughout. For the same compound, the total growth inhibition concentration (TGI) in the assay with NCI-H226 lung, in the assay with DU-145 prostate, with A549 NSCLC, with ACHN renal, in the assay on HCT-116 colon and with HS 578T breast was over 100 µM in each case. For the same compound, the total growth inhibition concentration (TGI) in the assay on NCI-H522 lung, with COLO 205 colon, in the assay on MOLT-4 leukemia, in the assay on SF-295 CNS, in the assay with SF-268 CNS and with A498 renal was over 100 µM each time.

As for `O=Cc1c2ccccc2n2ccc3c4ccccc4[nH]c3c12`, the TGI in the assay with HL-60(TB) leukemia, with HOP-62 NSCLC, with SR leukemia, in the assay with TK-10 renal, in the assay on CAKI-1 renal and in the assay with LOX IMVI melanoma was over 10 µM throughout. Moreover, the concentration for total growth inhibition (TGI) with NCI-H23 lung, with K-562 leukemia, with NCI-H226 lung, in the assay on DU-145 prostate, with A549 NSCLC and with ACHN renal was over 10 µM each time. For the same compound, the TGI with HCT-116 colon, with HS 578T breast, in the assay with NCI-H522 lung, with COLO 205 colon, in the assay on MOLT-4 leukemia and in the assay with SF-295 CNS was over 10 µM in each case. Moreover, the TGI with SF-268 CNS was over 10 µM.

In the case of `CC(C)(C)n1c(=O)[nH]n(C2NN=Cc3cccc4cccc2c34)c1=O` (stereo unspecified), the concentration for total growth inhibition (TGI) was 42.1 µM in the assay with HL-60(TB) leukemia; 37.4 µM in the assay on SR leukemia; over 100 µM in the assay with TK-10 renal; over 100 µM in the assay with CAKI-1 renal; over 100 µM in the assay with LOX IMVI melanoma; over 100 µM in the assay on NCI-H23 lung. Besides, the TGI in the assay with K-562 leukemia is 40.7 µM; in the assay on NCI-H226 lung it was over 100 µM; in the assay on DU-145 prostate, over 100 µM; in the assay with A549 NSCLC, 63.4 µM; in the assay on HCT-116 colon, over 100 µM; in the assay with HS 578T breast, over 100 µM. The total growth inhibition concentration (TGI) with COLO 205 colon was 74.9 µM; in the assay on MOLT-4 leukemia it was 81.1 µM; in the assay on SF-268 CNS, over 100 µM; in the assay on A498 renal, 64.9 µM.

Turning to `C=CCOC(=O)Cn1cc(C)c(=O)[nH]c1=O`, the TGI in the assay on HL-60(TB) leukemia, in the assay on HOP-62 NSCLC, in the assay with SR leukemia, in the assay on TK-10 renal, in the assay on CAKI-1 renal and with LOX IMVI melanoma was over 100 µM in each case. Besides, the TGI in the assay with NCI-H23 lung, in the assay with K-562 leukemia, with NCI-H226 lung, with DU-145 prostate, with A549 NSCLC and in the assay on ACHN renal was over 100 µM each time. The TGI in the assay with HCT-116 colon, in the assay on HS 578T breast, in the assay on COLO 205 colon, in the assay on MOLT-4 leukemia, in the assay with SF-295 CNS and in the assay with SF-268 CNS was over 100 µM each time. Moreover, the total growth inhibition concentration (TGI) with A498 renal was over 100 µM.

For `COc1cc(OC)cc(OCc2ccc3nc(-c4ccccc4)c(Cl)nc3c2)c1`, the concentration for total growth inhibition (TGI) in the assay on HL-60(TB) leukemia is over 100 µM; with HOP-62 NSCLC it was 33.8 µM; with SR leukemia it was 48 µM; in the assay on TK-10 renal it was 55.6 µM; in the assay with CAKI-1 renal it was 28.1 µM; in the assay with LOX IMVI melanoma, over 100 µM. In addition, the concentration for total growth inhibition (TGI) in the assay on NCI-H23 lung, with DU-145 prostate, in the assay on A549 NSCLC, with ACHN renal, in the assay with HCT-116 colon and with HS 578T breast was over 100 µM each time. The TGI in the assay with NCI-H522 lung was 20.3 µM; in the assay on COLO 205 colon it was 68.9 µM; in the assay on MOLT-4 leukemia it was 74.1 µM; with SF-295 CNS, 67.8 µM; in the assay on SF-268 CNS it was over 100 µM; in the assay on A498 renal, 76.8 µM.

As to `Cn1ccc(C(=O)N2CCSC2=S)c(OCc2ccccc2)c1=O`, the TGI was over 100 µM in the assay on HL-60(TB) leukemia; 93.6 µM in the assay on SR leukemia; over 100 µM in the assay with TK-10 renal; over 100 µM with CAKI-1 renal; over 100 µM with LOX IMVI melanoma; over 100 µM with NCI-H23 lung. In addition, the total growth inhibition concentration (TGI) in the assay on K-562 leukemia, with NCI-H226 lung, with DU-145 prostate, with A549 NSCLC, in the assay with ACHN renal and in the assay with HCT-116 colon was over 100 µM throughout. Moreover, the total growth inhibition concentration (TGI) in the assay on HS 578T breast, with NCI-H522 lung, in the assay on COLO 205 colon, in the assay on SF-268 CNS and with A498 renal was over 100 µM throughout.

These data come from PubChem BioAssay (NCI).
